Laboratory results taken from ChEMBL document CHEMBL4837186, “Structural Elucidation of Garcipaucinones A and B From Garcinia paucinervis Using Quantum Chemical Calculations” (J Nat Prod, 2021).

Experiments:
Format in all cases: functional, cell-based
HepG2 = assay: Cytotoxicity against human HepG2 cells assessed as reduction in cell viability after 24 hrs by CCK8 assay; conditions: HepG2, 24 h
MCF7 = assay: Cytotoxicity against human MCF7 cells assessed as reduction in cell viability after 24 hrs by CCK8 assay; conditions: MCF7, 24 h
RAW264.7 = assay: Anti-inflammatory activity in mouse RAW264.7 cells assessed as inhibition of LPS-induced NO production after 24 hrs by Griess reagent-based assay; conditions: RAW264.7, 24 h
T98G = assay: Cytotoxicity against human T98 cells assessed as reduction in cell viability after 24 hrs by CCK8 assay

SMILES | IC50 (HepG2) | IC50 (MCF7) | IC50 (RAW264.7) | IC50 (T98G)
CC(C)=CCC/C(C)=C/CC/C(C)=C/CC[C@]1(C)CCC2=C(O1)[C@]1(C)C[C@@](O)(Oc3c1occc3=O)C2=O | > 20 µM | > 20 µM | > 20 µM | > 20 µM
CC(C)=CCC/C(C)=C/CC/C(C)=C/CC[C@]1(C)CCC2=C(O1)[C@@]1(C)C[C@](O)(Oc3c1occc3=O)C2=O | > 20 µM | > 20 µM | > 20 µM | > 20 µM
C[C@@H]1C[C@H]2[C@@H]3CCC4=CC(=O)C=C[C@]4(C)[C@@]3(F)[C@@H](O)C[C@]2(C)[C@@]1(O)C(=O)CO [DEXAMETHASONE] | – | – | 8.28 µM | –
